The values that follow come from patent US9062046B2, “Substituted imidazoquinoline derivatives as kinase inhibitors” (Piramal Enterprises Limited, priority 2011, dated 2015).

Assay [1] concerns A2780 (ovarian cell line). Put plainly: Cytotoxicity assay (propidium iodide assay), A2780. Format: cell-based. The settings on record: Homo sapiens, A2780 cells, 48 h treatment. A digest of the protocol: (§1)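 A2780 and PC3 cells, 3000/well, were treated with compound for 48 h after 18-24 h attachment. After washing, propidium iodide 7 μg/ml was added, followed by freeze-thaw at −70 °C and a fluorescence read. Viability was taken relative to untreated wells, with IC50 derived from the curves.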

Assay [2] has as its system PC3 (prostate cell line). Put plainly: Cytotoxicity assay (propidium iodide assay), PC3. Format: cell-based. The settings on record: Homo sapiens, PC-3, PC3 cells, 48 h treatment. The method in brief: as §1
For assay [3], the target named is T1, p110α (Homo sapiens, UniProt P42336).
T1 construct: purchased Upstate Millipore
T1 sequence (P42336 whole entry, species assumed): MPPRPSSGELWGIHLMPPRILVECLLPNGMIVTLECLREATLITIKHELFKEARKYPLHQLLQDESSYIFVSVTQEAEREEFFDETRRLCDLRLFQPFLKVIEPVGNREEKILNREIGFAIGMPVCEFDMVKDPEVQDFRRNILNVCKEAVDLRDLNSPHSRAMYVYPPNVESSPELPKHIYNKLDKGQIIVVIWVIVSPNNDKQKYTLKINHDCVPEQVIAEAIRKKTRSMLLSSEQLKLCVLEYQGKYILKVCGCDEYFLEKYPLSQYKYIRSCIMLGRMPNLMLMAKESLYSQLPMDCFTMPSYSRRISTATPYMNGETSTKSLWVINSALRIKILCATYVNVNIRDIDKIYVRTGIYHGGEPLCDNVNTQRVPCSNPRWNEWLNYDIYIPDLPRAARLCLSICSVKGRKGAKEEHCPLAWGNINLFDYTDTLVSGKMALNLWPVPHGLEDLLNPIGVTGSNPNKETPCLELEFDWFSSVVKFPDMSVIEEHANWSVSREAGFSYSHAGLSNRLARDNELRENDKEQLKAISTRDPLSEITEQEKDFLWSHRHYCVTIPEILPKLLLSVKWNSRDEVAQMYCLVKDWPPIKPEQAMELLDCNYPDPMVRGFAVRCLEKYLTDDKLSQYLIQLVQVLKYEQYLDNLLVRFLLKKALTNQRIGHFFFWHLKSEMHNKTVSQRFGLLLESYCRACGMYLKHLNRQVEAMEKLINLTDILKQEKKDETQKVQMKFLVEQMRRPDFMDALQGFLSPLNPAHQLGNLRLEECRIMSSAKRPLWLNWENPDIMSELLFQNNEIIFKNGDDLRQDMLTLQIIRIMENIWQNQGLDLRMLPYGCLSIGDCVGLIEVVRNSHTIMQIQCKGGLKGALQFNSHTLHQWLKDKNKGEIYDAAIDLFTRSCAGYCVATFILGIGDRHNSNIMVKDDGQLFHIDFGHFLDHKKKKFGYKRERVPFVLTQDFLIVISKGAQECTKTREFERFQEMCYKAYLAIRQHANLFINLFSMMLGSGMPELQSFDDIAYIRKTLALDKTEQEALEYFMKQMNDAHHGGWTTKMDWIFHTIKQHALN
T1 sequence (P27986 whole entry partner, species assumed): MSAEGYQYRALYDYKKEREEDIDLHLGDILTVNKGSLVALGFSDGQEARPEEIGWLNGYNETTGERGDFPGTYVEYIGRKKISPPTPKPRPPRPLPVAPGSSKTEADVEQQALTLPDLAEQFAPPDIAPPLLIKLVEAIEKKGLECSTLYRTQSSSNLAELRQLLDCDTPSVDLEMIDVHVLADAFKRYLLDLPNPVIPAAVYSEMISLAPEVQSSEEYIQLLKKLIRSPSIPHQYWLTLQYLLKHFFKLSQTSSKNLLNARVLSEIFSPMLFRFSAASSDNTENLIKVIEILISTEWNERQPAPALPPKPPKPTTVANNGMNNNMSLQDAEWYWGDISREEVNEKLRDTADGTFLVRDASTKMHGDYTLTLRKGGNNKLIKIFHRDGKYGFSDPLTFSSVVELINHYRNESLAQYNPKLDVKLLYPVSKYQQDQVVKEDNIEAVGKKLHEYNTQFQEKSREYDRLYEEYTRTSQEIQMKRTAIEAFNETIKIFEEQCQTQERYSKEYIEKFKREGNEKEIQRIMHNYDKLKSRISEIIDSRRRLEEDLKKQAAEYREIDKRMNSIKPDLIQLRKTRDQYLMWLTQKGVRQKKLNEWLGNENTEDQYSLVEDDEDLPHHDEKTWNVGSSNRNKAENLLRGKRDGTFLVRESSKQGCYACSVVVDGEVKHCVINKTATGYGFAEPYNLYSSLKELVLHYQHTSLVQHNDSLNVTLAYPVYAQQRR
The experiment in a line: p110α radioactive lipid kinase assay (PI3Kα). The format is biochemical. As to conditions: 25 μM ATP, 2 h at RT, read-out: IC50 in μM (PI3 kinase activity). The procedure: Protocol for Kinase Assay (PI3Kα)
p110α Radioactive Lipid Kinase Assay
The assay was designed as in the reference, Journal of Biomolecular Screening, 2002, Vol. 7, No. 5, 441-450, the disclosure of which is incorporated by reference for the teaching of the assay.
The p110α biochemical assay was performed using a radioactive assay measuring the incorporation of ^32P into the p110α substrate, phosphatidylinsoitol (PI). For the generation of IC50 curves, the reaction was performed in a 96-well MaxiSorp plates. Plates were pre-coated with 4 μg/well of a 1:1 ratio of phosphatidylinositol (PI: Avanti #840042C) and phosphatidylserine (PS: Avanti #840032C) diluted in CHCl3. Equal amount of p110α (Upstate Millipore) protein was added to each well, containing reaction buffer (50 mM MOPSO pH7.0, 100 mM NaCl, 4 mM MgCl2, 0.1% (w/v) BSA) whereas, for negative control, only reaction buffer was added. Test compounds (referred to by example nos. in the following table 1) dissolved in DMSO were treated at nine-point dose responses. Reactions were initiated by the addition of 25 μM ATP solution containing 50 μCi/ml [γ-^32P]-ATP and incubated at RT for 2 h with gentle shaking. Reactions were finally terminated by the addition of 50 mM EDTA stock solution. Plates were washed 3 times with TBS buffer. The plates were air dried, Microscint 0 (Perkin Elmer) was added to each well and the plates were sealed. The radioactivity incorporated into the immobilized PI substrate was determined with Top Count (Perkin Elmer). Inhibition was calculated using the following equation: % inhibition=(Dcpm−Tcpm)/(Dcpm)×100 • Tcpm=^32P-cpm in presence of test compounds • Dcpm=^32P-cpm in DMSO control (enzyme control deducted) Results: IC50 values of test compounds for PI3 kinase activity is indicated in Table 1.

As to `Cn1c(=NC#N)n(-c2ccc(C(C)(C)C#N)nc2)c2c3cc(-c4ccc(N5CCCCC5)nc4)ccc3ncc21` [Example 76, N-(1-(6-(2-cyanopropan-2-yl)pyridin-3-yl)-3-methyl-8-(6-(piperidin-1-yl)pyridin-3-yl)-1H-imidazo[4,5-c]quinolin-2(3H)-ylidene)cyanamide], the IC50 (in general, the concentration that inhibits the measured activity by half) was no more than 0.5 µM in assay [1], 0.5 to 2 µM in assay [2] and 0.01 to 1 µM in assay [3].
In the case of `COc1ncc(-c2ccc3ncc4c(c3c2)n(-c2ccc(C(C)(C)C#N)nc2)c(=NC#N)n4C)cc1N` [Example 95, N-(8-(5-amino-6-methoxypyridin-3-yl)-1-(6-(2-cyanopropan-2-yl)pyridin-3-yl)-3-methyl-1H-imidazo[4,5-c]quinolin-2(3H)-ylidene)cyanamide], the values for the IC50 in assay [1], in assay [2] and in assay [3] were no more than 0.5 µM, no more than 0.5 µM and 0.01 to 1 µM, respectively.
Turning to `Cn1c(=NC#N)n(-c2ccc(C(C)(C)C#N)nc2)c2c3cc(-c4cnc(N)nc4)ccc3ncc21` [Example 75, N-(8-(2-aminopyrimidin-5-yl)-1-(6-(2-cyanopropan-2-yl)pyridin-3-yl)-3-methyl-1H-imidazo[4,5-c]quinolin-2(3H)-ylidene)cyanamide], the IC50 is no more than 0.5 µM in assay [1], no more than 0.5 µM in assay [2] and 0.01 to 1 µM in assay [3].
Consider `COc1ncc(-c2ccc3ncc4c(c3c2)n(-c2ccc(C(C)(C)C#N)nc2)c(=NC#N)n4C)cc1NS(=O)(=O)c1ccccc1` [Example 125, N-(5-(2-(cyanoimino)-1-(6-(2-cyanopropan-2-yl)pyridin-3-yl)-3-methyl-2,3-dihydro-1H-imidazo[4,5-c]quinolin-8-yl)-2-methoxypyridin-3-yl)benzenesulfonamide], for which the values for the IC50 in assay [1], in assay [2] and in assay [3] were no more than 0.5 µM, no more than 0.5 µM and no more than 0.01 µM, respectively.
Consider `Cn1c(=NC#N)n(-c2ccc(C(C)(C)C#N)nc2)c2c3cc(-c4cncc(C(F)(F)F)c4)ccc3ncc21` [Example 70], for which the IC50 in assay [1] was no more than 0.5 µM; in assay [2], no more than 0.5 µM; in assay [3], no more than 0.01 µM.
On to `Cn1c(=NC#N)n(-c2ccc(C(C)(C)C#N)nc2)c2c3cc(-c4ccc5[nH]ccc5c4)ccc3ncc21` [Example 73, N-(1-(6-(2-cyanopropan-2-yl)pyridin-3-yl)-8-(1H-indol-5-yl)-3-methyl-1H-imidazo[4,5-c]quinolin-2(3H)-ylidene)cyanamide], for which the IC50 is no more than 0.5 µM in assay [1], no more than 0.5 µM in assay [2] and no more than 0.01 µM in assay [3].
For `Cn1c(=NC#N)n(-c2ccc(C(C)(C)C#N)nc2)c2c3cc(-c4cnc(N)c(C(F)(F)F)c4)ccc3ncc21` [Example 5, N-(8-(6-amino-5-(trifluoromethyl)pyridin-3-yl)-1-(6-(2-cyanopropan-2-yl)pyridin-3-yl)-3-methyl-1H-imidazo[4,5-c]quinolin-2(3H)-ylidene)cyanamide], the figures for the IC50 in assay [1], in assay [2] and in assay [3] were no more than 0.5 µM, no more than 0.5 µM and no more than 0.01 µM, respectively.
As for `Cn1c(=NC#N)n(-c2ccc(C(C)(C)C#N)nc2)c2c3cc(-c4ccc5cc[nH]c5c4)ccc3ncc21` [Example 79, N-(1-(6-(2-cyanopropan-2-yl)pyridin-3-yl)-8-(1H-indol-6-yl)-3-methyl-1H-imidazo[4,5-c]quinolin-2(3H)-ylidene)cyanamide], the IC50 is no more than 0.5 µM in assay [1], no more than 0.5 µM in assay [2] and no more than 0.01 µM in assay [3].
Regarding `Cn1c(=NC#N)n(-c2ccc(C(C)(C)C#N)nc2)c2c3cc(-c4ccc5cn[nH]c5c4)ccc3ncc21` [Example 77, N-(1-(6-(2-cyanopropan-2-yl)pyridin-3-yl)-8-(1H-indazol-6-yl)-3-methyl-1H-imidazo[4,5-c]quinolin-2(3H)-ylidene)cyanamide], the half-inhibitory concentration (IC50) was no more than 0.5 µM in assay [1], no more than 0.5 µM in assay [2] and 0.01 to 1 µM in assay [3].
In the case of `CC(=O)N(C(C)=O)c1ncc(-c2ccc3ncc4c(c3c2)n(-c2ccc(C(C)(C)C#N)nc2)c(=NC#N)n4C)cc1C(F)(F)F` [Example 132, N-acetyl-N-(5-(2-(cyanoimino)-1-(6-(2-cyanopropan-2-yl)pyridin-3-yl)-3-methyl-2,3-dihydro-1H-imidazo[4,5-c]quinolin-8-yl)-3-(trifluoromethyl)pyridin-2-yl)acetamide], the inhibition at 1 µM in assay [1] and in assay [2] was less than 30% throughout.
For the compound `COc1ccc(-n2c(=NC#N)n(C)c3cnc4ccc(-c5cccnc5)cc4c32)c(OC)c1` [Example 101, N-(1-(2,4-dimethoxyphenyl)-3-methyl-8-(pyridin-3-yl)-1H-imidazo[4,5-c]quinolin-2(3H)-ylidene)cyanamide], the IC50 in assay [1] and in assay [2] was no more than 0.5 µM each time.
For the compound `Cc1cc(-c2ccc3ncc4c(c3c2)n(-c2ccc(C(C)(C)C#N)nc2)c(=NC#N)n4C)cnc1F` [Example 78, N-(1-(6-(2-cyanopropan-2-yl)pyridin-3-yl)-8-(6-fluoro-5-methylpyridin-3-yl)-3-methyl-1H-imidazo[4,5-c]quinolin-2(3H)-ylidene)cyanamide], the IC50 in assay [1] was no more than 0.5 µM; in assay [2] it was no more than 0.5 µM; in assay [3], 0.01 to 1 µM.
Take `COc1ccc(-n2c(=NC#N)n(C)c3cnc4ccc(-c5cccc(C)c5)cc4c32)cn1` [Example 29, N-(1-(6-methoxypyridin-3-yl)-3-methyl-8-m-tolyl-1H-imidazo[4,5-c]quinolin-2(3H)-ylidene)cyanamide]: the values for the inhibition at 1 µM in assay [1] and in assay [2] were 30 to 70% and less than 30%, respectively.
